Experimental data taken from patent publication US4154830A, “Unsaturated derivatives of 7-acylamido-3-cephem-4-carboxylic acid” (Carlo Erba S.p.A., priority 1977, dated 1979).
Values after ≈ are worked out from the molar mass of the structure shown. Where two headings read alike, the source gives them in different places.

Assays:
Format in all cases: cell-based
[1] = system: Staphylococcus aureus Smith; assay: minimal inhibiting concentration (MIC), Gram-positive bacteria
[2] = system: Shigella sonnei ATCC11060; assay: minimal inhibiting concentration (MIC), Gram-negative bacteria
[3] = system: Streptococcus β-haemolyticus C203; assay: minimal inhibiting concentration (MIC), Gram-positive bacteria
[4] = system: Proteus mirabilis ATCC9921; assay: minimal inhibiting concentration (MIC), Gram-negative bacteria
[5] = system: Enterobacter aerogenes ATCC8308; assay: as above; conditions: Klebsiella aerogenes
[6] = system: Escherichia coli 1507; assay: as above
[7] = system: Escherichia coli G; assay: as above
[8] = system: streptococci (including diplococci); assay: activity against streptococci (including diplococci) compared with Cefazolin
From the text: (§1) The pharmaceutical or veterinary compositions containing the compounds of the invention may be prepared in a conventional way by employing the conventional carriers and/or diluents used for the other cephalosporins. Conventional carriers or diluents are, for example, water, gelatine, lactose, starches, magnesium stearate, talc, vegetable oils, cellulose and the like.

[9] = system: staphylococci; assay: activity against staphylococci compared with Cefazolin
From the text: as §1

[10] = system: Diplococcus aureus 39/2; assay: minimal inhibiting concentration (MIC), Gram-positive bacteria
[11] = system: Klebsiella pneumoniae ATCC 10031; assay: minimal inhibiting concentration (MIC), Gram-negative bacteria; conditions: ATCC10031
[12] = system: Salmonella typhi Watson; assay: as above; conditions: Salmonella enterica
[13] = system: Klebsiella aerogenes 1522E; assay: as above
[14] = system: Haemophylus influenzae; assay: activity against Haemophylus influenzae in comparison with Cefazolin; conditions: 7 strains tested
From the text: as §1

[15] = system: Diplococcus pneumoniae ATCC6301; assay: minimal inhibiting concentration (MIC), Gram-positive bacteria; conditions: Streptococcus pneumoniae
[16] = system: 60 strains of Gram-negative microorganisms comprising Klebsiella, Escherichia coli, Proteus mirabilis and Proteus vulgaris; assay: activity on a series of 60 strains of Gram-negative microorganisms in comparison with Cefazolin
From the text: as §1

[17] = system: Enterobacter cloacae 1321E; assay: minimal inhibiting concentration (MIC), Gram-negative bacteria
[18] = system: Gram-negative bacteria; assay: activity against Gram-negative bacteria
From the text: The compounds of the invention may be administered, either to humans or to animals, in a variety of dosage forms, e.g., orally in the form of tablets, capsules, drops or syrups; rectally in the form of suppositories; parenterally, e.g. intravenously or intramuscolarly (as solutions or suspensions), with intravenous administration being preferred in emergency situation; by inhalation in the form of aerosols or solutions for nebulizers; intravaginally in the form, e.g. of bougies; or topically in the form of lotions, creams and ointments. The pharmaceutical or veterinary compositions containing the compounds of the invention may be prepared in a conventional way by employing the conventional carriers and/or diluents used for the other cephalosporins. Conventional carriers or diluents are, for example, water, gelatine, lactose, starches, magnesium stearate, talc, vegetable oils, cellulose and the like. Daily doses in the range of about 1 to about 100 mg per kg of body weight may be used, in various animal species, the exact dose depending on the age, weight and condition of the subject to be treated and on the frequency and route of administration. […]

[19] = Escherichia coli G, read-out: MIC

In the case of Cn1nnnc1SCC1=C(C(=O)O)N2C(=O)C(NC(=O)CS/C=C\C#N)C2SC1 (stereo not drawn) [K 13101, 7-[β-cyano-ethylene(cis)-thio-acetamido]-3-[(1-methyl-1,2,3,4-tetrazol-5-yl)-thiomethyl]-3-cephem-4-carboxylic acid], the MIC [1] is reported as 0.025 µg/mL (≈ 0.0551 µM), the MIC [2] is reported as 0.8 µg/mL (≈ 1.76 µM) and the MIC [3] is reported as 0.012 µg/mL (≈ 0.0265 µM). For the same compound, the MIC [4] was 0.4 µg/mL (≈ 0.882 µM), the MIC [5] was 0.2 µg/mL (≈ 0.441 µM) and the MIC [6] was 0.1 µg/mL (≈ 0.22 µM). The MIC [7, 19] was 0.14 µg/mL (≈ 0.309 µM), the “times more active than Cefazolin” value [8] was “about 4.2 times” and the “times more active than Cefazolin” value [9] was “about 2 times”. The MIC [10] was 0.14 µg/mL (≈ 0.309 µM), the MIC [11] was 0.1 µg/mL (≈ 0.22 µM) and the MIC [12] was 0.07 µg/mL (≈ 0.154 µM). The MIC [13] was 0.1 µg/mL (≈ 0.22 µM), the “times more active than Cefazolin” value [14] was “about 6 times” and the MIC [15] was 0.012 µg/mL (≈ 0.0265 µM). For the same compound, the “activity in comparison with Cefazolin” value [16] was “always found to be more active than Cefazolin”, the MIC [17] was 0.56 µg/mL (≈ 1.23 µM) and the “times more active than Cefazolin” value [18] was “about 9.6 times”.

Compound Cn1nnnc1SCC1=C(C(=O)O)N2C(=O)C(NC(=O)[C@H](O)c3ccccc3)[C@H]2SC1 (stereo partly drawn) [Cefamandole, 7-D-mandelamido-3-{[(1-methyl-1H-tetrazol-5-yl)-thio]-methyl}-3-cephem-4-carboxylic acid, reference compound] has an MIC [1] of 0.15 µg/mL (≈ 0.324 µM), an MIC [2] of 2.35 µg/mL (≈ 5.08 µM) and an MIC [3] of 0.019 µg/mL (≈ 0.0411 µM). It also gave an MIC [4] of 1.6 µg/mL (≈ 3.46 µM), an MIC [5] of 1.6 µg/mL (≈ 3.46 µM) and an MIC [6] of 0.8 µg/mL (≈ 1.73 µM). The MIC ([7]; Escherichia coli) was 2.35 µg/mL (≈ 5.08 µM), the MIC [10] was 1.2 µg/mL (≈ 2.59 µM) and the MIC [11] was 0.15 µg/mL (≈ 0.324 µM). The MIC [12] was 0.6 µg/mL (≈ 1.3 µM), the MIC [13] was 0.4 µg/mL (≈ 0.865 µM) and the MIC [15] was 0.019 µg/mL (≈ 0.0411 µM). For the same compound, the MIC [17] was 1.6 µg/mL (≈ 3.46 µM).

In the case of N#C/C=C\SCC(=O)NC1C(=O)N2C(C(=O)O)=C(CSc3nncs3)CSC12 (stereo not drawn) [K 13107, 7-[β-cyano-ethylene(cis)-thio-acetamido]-3-[(1,3,4-thiadiazol-2-yl)-thiomethyl]-3-cephem-4-carboxylic acid], the MIC [1] is reported as 0.025 µg/mL (≈ 0.0549 µM), the MIC [2] is reported as 1.6 µg/mL (≈ 3.51 µM) and the MIC [3] is reported as < 0.006 µg/mL. The MIC [4] was 0.4 µg/mL (≈ 0.878 µM), the MIC [5] was 0.4 µg/mL (≈ 0.878 µM) and the MIC [6] was 0.57 µg/mL (≈ 1.25 µM). For the same compound, the MIC [7, 19] was 0.57 µg/mL (≈ 1.25 µM), the MIC [10] was 0.14 µg/mL (≈ 0.307 µM) and the MIC [11] was 0.2 µg/mL (≈ 0.439 µM). For the same compound, the MIC [12] was 0.2 µg/mL (≈ 0.439 µM), the MIC [13] was 0.28 µg/mL (≈ 0.615 µM) and the MIC [15] was < 0.006 µg/mL. For the same compound, the MIC [17] was 1.6 µg/mL (≈ 3.51 µM).

For Cn1nnnc1SCC1=C(C(=O)O)N2C(=O)C(NC(=O)CSCC#N)C2SC1 (stereo not shown) [K 10299, 7-[(cyanomethyl-thio)-acetamido]-3-[5-(1-methyl-1,2,3,4-tetrazolyl)-thiomethyl]-3-cephem-4-carboxylic acid, reference compound], the MIC [1] was 0.075 µg/mL (≈ 0.17 µM), the MIC [2] was 1.6 µg/mL (≈ 3.62 µM) and the MIC [3] was 0.037 µg/mL (≈ 0.0838 µM). The MIC [4] was 6.2 µg/mL (≈ 14 µM), the MIC [5] was 0.6 µg/mL (≈ 1.36 µM) and the MIC [6] was 0.8 µg/mL (≈ 1.81 µM). It also gave an MIC [7, 19] of 0.8 µg/mL (≈ 1.81 µM), an MIC [10] of 0.4 µg/mL (≈ 0.906 µM) and an MIC [11] of 0.2 µg/mL (≈ 0.453 µM). The MIC [12] was 0.2 µg/mL (≈ 0.453 µM), the MIC [13] was 0.8 µg/mL (≈ 1.81 µM) and the MIC [15] was 0.2 µg/mL (≈ 0.453 µM). The MIC [17] was 1.6 µg/mL (≈ 3.62 µM).

Cc1nnc(SCC2=C(C(=O)O)N3C(=O)[C@@H](NC(=O)Cn4cnnn4)[C@H]3SC2)s1 [Cefazolin, 7-(1-(1H)-tetrazolylacetamido)-3-[2-(5-methyl-1,3,4-thiadiazolyl)-thiomethyl]-3-cephem-4-carboxylic acid, reference compound] showed an MIC [1] of 0.05 µg/mL (≈ 0.11 µM), an MIC [2] of 1.6 µg/mL (≈ 3.52 µM) and an MIC [3] of 0.05 µg/mL (≈ 0.11 µM). The MIC [4] was 6.2 µg/mL (≈ 13.6 µM), the MIC [5] was 1.2 µg/mL (≈ 2.64 µM) and the MIC [6] was 1.6 µg/mL (≈ 3.52 µM). The MIC [7, 19] was 1.6 µg/mL (≈ 3.52 µM), the MIC [10] was 0.6 µg/mL (≈ 1.32 µM) and the MIC [11] was 0.8 µg/mL (≈ 1.76 µM). For the same compound, the MIC [12] was 1.6 µg/mL (≈ 3.52 µM), the MIC [13] was 1.1 µg/mL (≈ 2.42 µM) and the MIC [15] was 0.05 µg/mL (≈ 0.11 µM). For the same compound, the MIC [17] was 3.1 µg/mL (≈ 6.82 µM).

Cc1nnc(SCC2=C(C(=O)O)N3C(=O)C(NC(=O)CSCC#N)C3SC2)s1 (stereo not shown) [K 9227, 7-[(cyanomethyl-thio)-acetamido]-3-[2-(5-methyl-1,3,4-thiadiazolyl)-thiomethyl]-3-cephem-4-carboxylic acid, reference compound] gave an MIC [1] of 0.05 µg/mL (≈ 0.109 µM), an MIC [2] of 1.6 µg/mL (≈ 3.5 µM) and an MIC [3] of 0.025 µg/mL (≈ 0.0546 µM). For the same compound, the MIC [4] was 12.5 µg/mL (≈ 27.3 µM), the MIC [5] was 1.2 µg/mL (≈ 2.62 µM) and the MIC [6] was 1.6 µg/mL (≈ 3.5 µM). For the same compound, the MIC [7, 19] was 3.1 µg/mL (≈ 6.77 µM), the MIC [10] was 0.2 µg/mL (≈ 0.437 µM) and the MIC [11] was 0.4 µg/mL (≈ 0.874 µM). For the same compound, the MIC [12] was 0.8 µg/mL (≈ 1.75 µM), the MIC [13] was 1.6 µg/mL (≈ 3.5 µM) and the MIC [15] was 0.4 µg/mL (≈ 0.874 µM). It also gave an MIC [17] of 3.1 µg/mL (≈ 6.77 µM).

Cn1nnnc1SCC1=C(C(=O)O)N2C(=O)C(NC(=O)CS/C=C\C(N)=O)C2SC1 (stereo not drawn) [K 13031, 7-[β-carboxamido-ethylene(cis)-thio-acetamido]-3-[(1-methyl-1,2,3,4-tetrazol-5-yl)-thiomethyl]-3-cephem-4-carboxylic acid] was tested, and the MIC [1] was 0.1 µg/mL (≈ 0.212 µM), the MIC [2] was 0.3 µg/mL (≈ 0.636 µM) and the MIC [3] was < 0.012 µg/mL. For the same compound, the MIC [4] was 0.8 µg/mL (≈ 1.7 µM), the MIC [5] was 0.3 µg/mL (≈ 0.636 µM) and the MIC [6] was 0.4 µg/mL (≈ 0.848 µM). It also gave an MIC [7, 19] of 0.8 µg/mL (≈ 1.7 µM), an MIC [10] of 0.2 µg/mL (≈ 0.424 µM) and an MIC [11] of 0.2 µg/mL (≈ 0.424 µM). For the same compound, the MIC [12] was 0.2 µg/mL (≈ 0.424 µM), the MIC [13] was 0.2 µg/mL (≈ 0.424 µM) and the MIC [15] was 0.012 µg/mL (≈ 0.0254 µM). The MIC [17] was 0.8 µg/mL (≈ 1.7 µM).

Cn1nnnc1SCC1=C(C(=O)O)N2C(=O)C(NC(=O)CS/C=C/C(N)=O)C2SC1 (stereo not drawn) [K 11457, 7-[β-carboxamido-ethylene(trans)-thio-acetamido]-3-[(1-methyl-1,2,3,4-tetrazol-5-yl)-thiomethyl]-3-cephem-4-carboxylic acid] gave an MIC [1] of 0.1 µg/mL (≈ 0.212 µM), an MIC [2] of 1.6 µg/mL (≈ 3.39 µM) and an MIC [3] of 0.025 µg/mL (≈ 0.053 µM). It also gave an MIC [4] of 3.1 µg/mL (≈ 6.57 µM), an MIC [5] of 0.4 µg/mL (≈ 0.848 µM) and an MIC [6] of 0.4 µg/mL (≈ 0.848 µM). For the same compound, the MIC [7, 19] was 0.4 µg/mL (≈ 0.848 µM), the MIC [10] was 0.4 µg/mL (≈ 0.848 µM) and the MIC [11] was 0.15 µg/mL (≈ 0.318 µM). The MIC [12] was 0.2 µg/mL (≈ 0.424 µM), the MIC [13] was 0.2 µg/mL (≈ 0.424 µM) and the MIC [15] was 0.025 µg/mL (≈ 0.053 µM). It also gave an MIC [17] of 1.6 µg/mL (≈ 3.39 µM).
